{"source": "paper PMC5594043", "about": "“CYP79 P450 monooxygenases in gymnosperms: CYP79A118 is associated with the formation of taxiphyllin in Taxus baccata” (Plant Molecular Biology, 2017)", "target": "T1, CYP79A118 full-length (CYP79A118-M1) (Taxus baccata, UniProt A0A288W866)", "T1 construct": "full-length ORF; yeast WAT11 microsomes with Arabidopsis CPR1; pESC-Leu2d", "format": "biochemical", "details": "1 mM substrate; NADPH 1 mM; Arabidopsis CPR1 in microsomes; 75 mM sodium phosphate pH 7.0; 25 °C; product indole-3-acetaldoxime", "data": [{"smiles": "N[C@@H](Cc1c[nH]c2ccccc12)C(=O)O", "note": "[Trp, L-tryptophan]", "values": [{"measurement": "LC-MS/MS of aldoxime product, yeast microsomes", "value": "the full-length protein as well as the truncated version showed enzymatic activity with the aromatic"}]}]}
